Assay results as given in patent publication US20140179681A1, “METHODS AND COMPOSITIONS OF TARGETED DRUG DEVELOPMENT” (priority 2010, published 2014).
Counter-ions that a name gives are not always drawn. Like-named read-outs stand apart in the source and are kept apart here.

Experiments:
[1] = system: epithelial carcinoma A431 cell line; assay: MTT Cell Proliferation Assay, A431 cells; assay type: cell-based; details: for MTT Assay IC50(A431/MDBK): ratio in parentheses: ratio MDBK IC50 / A431 IC50 (selectivity)
Procedure, shortened: (§1)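 Each concentration ran in quadruplicate across duplicate plates, with compounds serially diluted in DMSO and delivered at 0.5% DMSO in 0.5% FBS medium for 3 days.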

MDBK line = assay: MTT Cell Proliferation Assay, MDBK cells; assay type: cell-based, bovine
Procedure, shortened: as §1

EGFR = target: T1, EGFR (Homo sapiens, UniProt P00533); assay: EGFR in-cell Western (ICW) screening protocol (EGFR inhibition assay); assay type: cell-based; parameters: ICW 1 / ICW 2 / ICW Avg: unit not given here; details: for ICW Avg / ICW 1 / ICW 2: ICW assay; for ICW Avg: average of runs 1 and 2; for ICW 1: run 1; for ICW 2: run 2; for ICW assay: Table 10
T1 construct: host or cells: A431
Procedure, shortened: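 In-cell Western read-out: fixed A431 cells were co-stained for total EGFR and phospho-EGFR (Tyr1173; some runs Tyr1045). Before fixation, cells were serum-starved for 2 h, exposed to compound for 4 h, then given EGF for 10 min, usually at 10 ng/ml final (6.6 or 12.5 ng/ml in some runs).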

[2] = Homo sapiens, A-431, A431 cells, first value of cell, read-out: MTT Assay IC50(A431/MDBK): A431
[3] = Bos taurus, MDBK, MDBK cells, second value of cell, read-out: MTT Assay IC50(A431/MDBK): MDBK
[4] = A431 cells, first value of cell, read-out: MTT Assay IC50(A431/MDBK): A431
[5] = MDBK cells, second value of cell, read-out: MTT Assay IC50(A431/MDBK): MDBK
[6] = Homo sapiens, A-431, first value of 'a/b (c)', taken as A431 cells, read-out: MTT Screen, first value of cell
[7] = Bos taurus, MDBK, second value of 'a/b (c)', taken as MDBK cells, read-out: MTT Screen, second value of cell
[8] = Homo sapiens, A-431, 72 h, Table 10, first of x/y(ratio): A431, three day treatment, unit not printed (doses in μM), read-out: MTT assay (first value)
[9] = Bos taurus, MDBK, 72 h, Table 10, second of x/y(ratio): MDBK, three day treatment, unit not printed (doses in μM), read-out: MTT assay (second value)
[10] = % Inhibition of EGF dependent EGFR phosphorylation in A431 cells, compound 125 μM in assay

T1 sequence (P00533 25-1210): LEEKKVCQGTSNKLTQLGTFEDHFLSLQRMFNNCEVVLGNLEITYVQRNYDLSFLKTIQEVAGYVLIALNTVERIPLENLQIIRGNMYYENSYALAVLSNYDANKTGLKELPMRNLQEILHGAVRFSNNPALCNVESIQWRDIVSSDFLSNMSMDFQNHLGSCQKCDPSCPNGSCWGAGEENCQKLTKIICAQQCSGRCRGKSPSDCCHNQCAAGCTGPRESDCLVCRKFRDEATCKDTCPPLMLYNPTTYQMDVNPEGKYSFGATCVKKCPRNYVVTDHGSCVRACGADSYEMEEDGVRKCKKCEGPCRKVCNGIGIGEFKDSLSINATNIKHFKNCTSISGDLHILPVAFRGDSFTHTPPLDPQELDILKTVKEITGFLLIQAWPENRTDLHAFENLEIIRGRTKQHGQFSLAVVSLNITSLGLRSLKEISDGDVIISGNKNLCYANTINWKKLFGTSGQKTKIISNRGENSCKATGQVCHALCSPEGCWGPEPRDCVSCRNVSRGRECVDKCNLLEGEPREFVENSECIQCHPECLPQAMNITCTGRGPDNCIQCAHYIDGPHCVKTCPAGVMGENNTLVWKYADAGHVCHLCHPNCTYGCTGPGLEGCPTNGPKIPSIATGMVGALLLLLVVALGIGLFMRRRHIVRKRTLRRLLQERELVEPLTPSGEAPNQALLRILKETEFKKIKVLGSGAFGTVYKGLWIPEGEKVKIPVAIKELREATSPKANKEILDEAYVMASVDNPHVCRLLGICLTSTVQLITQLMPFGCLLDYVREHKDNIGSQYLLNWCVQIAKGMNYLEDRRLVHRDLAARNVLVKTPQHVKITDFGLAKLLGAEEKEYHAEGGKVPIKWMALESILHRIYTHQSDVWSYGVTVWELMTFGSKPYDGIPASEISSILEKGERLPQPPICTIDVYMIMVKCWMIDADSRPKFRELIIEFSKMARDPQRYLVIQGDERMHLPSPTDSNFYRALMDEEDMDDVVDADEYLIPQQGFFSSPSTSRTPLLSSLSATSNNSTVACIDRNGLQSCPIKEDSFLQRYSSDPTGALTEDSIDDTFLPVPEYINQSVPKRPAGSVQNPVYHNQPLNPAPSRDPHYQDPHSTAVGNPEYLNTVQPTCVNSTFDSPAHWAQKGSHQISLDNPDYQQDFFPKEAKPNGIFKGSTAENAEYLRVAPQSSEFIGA

IC50 [1, 2] [µM]	MTT Assay IC50(A431/MDBK): ratio in parentheses [1]	ICW Avg (EGFR)	ICW 1 (EGFR)	ICW 2 (EGFR)	Compound	IC50 (MDBK line; [3]) [µM]	other results
37.2	0.46	28.49	21.11	35.88	Cc1nc(Nc2nc(CSc3ccccn3)cc(=O)[nH]2)nc2ccccc12 [12623 + TFA]	17	–
–	0.98	44.17	51.06	37.29	CCc1c(C)nc(Nc2nc(C)c3ccc(C)cc3n2)[nH]c1=O [12665 + TFA]	–	IC50 [1, 4]: 17.5 µM; IC50 (MDBK line; [5]): 17.2 µM
17.9	0.74	33.91	36.71	31.11	Cc1cc(C)c2nc(Nc3nc(CSc4nnc(C)s4)cc(=O)[nH]3)nc(C)c2c1 [compound 11476]	13.3	–
39.3	0.28	32.72	31.42	34.02	CCc1c(C)[nH]c(Nc2nc(C)c3cc(C)c(C)cc3n2)nc1=O [11809 + TFA]	10.9	–
–	–	–	–	–	Cc1ccc(NS(=O)(=O)c2ccc(NC(=S)NC(=O)CC(C)C)cc2)c(C)c1 [AD4-12010]	–	IC50 [1, 6]: 6.68 µM; IC50 (MDBK line; [7]): 6.16 µM; ICW Screen (ICW Inhibition) (EGFR): 33.772
–	–	57.36	69.21	45.51	CCCc1c(C)nc(Nc2nc(C)c3cc(C)cc(C)c3n2)[nH]c1=O [12612 + TFA]	–	IC50 [1, 4]: 48.5 µM; IC50 (MDBK line; [5]): 79.2 µM
5.58	1.35	29.97	34.09	25.85	Cc1cccc(Cc2c(C)nc(Nc3nc(C)c4cccc(C)c4n3)[nH]c2=O)c1 [11754 + TFA]	7.55	–
50.4	0.39	31.33	41.25	21.42	C=CCc1c(C)nc(Nc2nc(C)c3ccccc3n2)[nH]c1=O [12610 + TFA]	19.6	–
–	–	–	–	–	COc1cc(NS(=O)(=O)c2ccc(NC(=S)NC(=O)/C=C/c3ccc(C(C)C)cc3)cc2)nc(OC)n1 [AD4-11638]	–	IC50 [1, 6]: 11.2 µM; IC50 (MDBK line; [7]): 14.9 µM; ICW Screen (ICW Inhibition) (EGFR): 68.754
–	–	–	–	–	Cc1cc(C)nc(NS(=O)(=O)c2ccc(NC(=S)NC(=O)/C=C/c3ccc(Cl)cc3)cc2)n1 [AD4-11648]	–	IC50 [1, 6]: 46.7 µM; IC50 (MDBK line; [7]): 45.1 µM; ICW Screen (ICW Inhibition) (EGFR): 38.362
–	–	–	–	–	Cc1ccc(NC(=S)Nc2ccc(S(=O)(=O)Nc3cc(Cl)cc(Cl)c3)cc2)cc1Cl [AD4-12522]	–	IC50 [1, 8]: 6.2 µM; IC50 (MDBK line; [9]): 5.33 µM; ICW assay (EGFR; [10]): 123.893
–	–	–	–	–	O=S(=O)(Nc1ccccc1)c1ccc(NC(=S)Nc2ccc(F)c(Cl)c2)cc1 [AD4-12851]	–	IC50 [1, 8]: 6.51 µM; IC50 (MDBK line; [9]): 5.39 µM; ICW assay (EGFR; [10]): 118.637
15.9	0.58	34.03	28.51	39.54	C=CCc1c(C)nc(Nc2nc(C)c3cc(CC)ccc3n2)[nH]c1=O [compound 12739]	9.17	–
49	0.71	25.22	31.51	18.94	COCc1cc(=O)nc(Nc2nc(C)c3cc(C)cc(C)c3n2)[nH]1 [11625 + TFA]	34.7	–
27.4	1.79	28.58	38.67	18.48	Cc1cc(C(F)(F)F)nc(Nc2nc(C)c3ccccc3n2)n1 [compound 11457]	49	–
–	–	–	–	–	CC1CCc2cc(F)ccc2N1S(=O)(=O)c1ccc(NC(=S)Nc2cccc(Cl)c2Cl)cc1 (stereo not shown) [AD4-12853]	–	IC50 [1, 8]: 8.76 µM; IC50 (MDBK line; [9]): 7.51 µM; ICW assay (EGFR; [10]): 36.92
15.7	–	40.51	43.70	37.31	Cc1ccc(SCc2cc(=O)[nH]c(Nc3nc(C)c4cccc(C)c4n3)n2)cc1 [11707 + TFA]	–	MTT Assay IC50(A431/MDBK): MDBK (MDBK line; MDBK cells, second value of cell): non-convergent
14.7	0.43	42.27	38.90	45.65	C=CCc1c(C)nc(Nc2nc(C)c3cccc(OCC)c3n2)[nH]c1=O [compound 12737]	6.33	–

IC50 [1, 2] [µM]	MTT Assay IC50(A431/MDBK): ratio in parentheses [1]	ICW Avg (EGFR)	ICW 1 (EGFR)	ICW 2 (EGFR)	Compound	IC50 (MDBK line; [3]) [µM]	other results
13.5	1.80	25.27	34.91	15.63	Cc1ccc(C2CC(=O)c3cnc(Nc4nc(C)c5cc(C)c(C)cc5n4)nc3C2)cc1 (stereo not shown) [11670 + TFA]	24.3	–
–	–	–	–	–	CCCC(=O)NC(=S)Nc1ccc(S(=O)(=O)Nc2ccc(OCC)cc2)cc1 [AD4-12183]	–	IC50 [1, 6]: 25.6 µM; IC50 (MDBK line; [7]): 17.2 µM; ICW Screen (ICW Inhibition) (EGFR): 37.695
–	–	–	–	–	CN1CCN(S(=O)(=O)c2ccc(NC(=S)NC(=O)/C=C/c3cccs3)cc2)CC1 [AD4-12060]	–	IC50 [1, 6]: 48.5 µM; IC50 (MDBK line; [7]): 40.5 µM; ICW Screen (ICW Inhibition) (EGFR): 34.272
–	–	–	–	–	O=C(Cc1ccccc1)NC(=S)Nc1ccc(S(=O)(=O)Nc2ccccc2)cc1 [AD4-12074]	–	IC50 [1, 6]: 16.2 µM; IC50 (MDBK line; second value of 'a/b (c)', taken as MDBK cells, read-out: MTT Screen, second value of cell): 32.3 µM; ICW Screen (ICW Inhibition) (EGFR): 29.545
–	–	–	–	–	COc1ccccc1/C=C/C(=O)NC(=S)Nc1ccc(S(=O)(=O)N2CCN(C)CC2)cc1 [AD4-12265]	–	IC50 [1, 6]: 38.1 µM; IC50 (MDBK line; [7]): 35.1 µM; ICW Screen (ICW Inhibition) (EGFR): 31.19
10.3	0.88	35.54	41.06	30.01	Cc1ccc2nc(Nc3nc(-c4ccccc4C)cc(=O)[nH]3)nc(C)c2c1 [11785 + TFA]	9.15	IC50 ([1]; Homo sapiens, A-431, follow-up MTT, A431 cells, first value, read-out: MTT Follow-up: A431): 24.8 µM; MTT Follow-up: ratio in parentheses ([1]; follow-up MTT, ratio MDBK/A431): 1.04; IC50 (MDBK line; Bos taurus, MDBK, follow-up MTT, MDBK cells, second value, read-out: MTT Follow-up: MDBK): 25.9 µM
–	–	–	–	–	CC(=O)c1ccc(NC(=S)Nc2ccc(S(=O)(=O)Nc3ccccc3C)cc2)cc1 [AD4-10700]	–	IC50 [1, 8]: 14.7 µM; IC50 (MDBK line; [9]): 14.3 µM; ICW assay (EGFR; [10]): 52.5996
–	–	–	–	–	CC1CCC(S(=O)(=O)c2ccc(NC(=S)NC(=O)C3CC3)cc2)CC1 (stereo not shown) [AD4-12146]	–	IC50 [1, 6]: 26.6 µM; IC50 (MDBK line; [7]): 25.8 µM; ICW Screen (ICW Inhibition) (EGFR): 40.916
–	–	–	–	–	CC1CCc2cc(F)ccc2N1S(=O)(=O)c1ccc(NC(=S)Nc2cccc(F)c2)cc1 (stereo not shown) [AD4-12837]	–	IC50 [1, 8]: 6.28 µM; IC50 (MDBK line; [9]): 5.68 µM; ICW assay (EGFR; [10]): 35.1542
–	–	–	–	–	CCc1cc2c(CN3CCN(Cc4ccccc4)CC3)cc(=O)oc2cc1O [AD4-10186]	–	IC50 ([1]; Homo sapiens, A-431, Table 11, first of x/y(ratio): A431, unit not printed (doses in μM), read-out: MTT Screen (first value)): 40.1 µM; IC50 (MDBK line; Bos taurus, MDBK, Table 11, second of x/y(ratio): MDBK, unit not printed (doses in μM), read-out: MTT Screen (second value)): 45.7 µM; ICW Screen (EGFR; Table 11, % Inhibition of EGF dependent EGFR phosphorylation in A431 cells, compound 125 μM in assay): 47.518
–	0.97	49.20	33.49	64.92	CCCc1c(C)nc(Nc2nc(C)c3cccc(C)c3n2)[nH]c1=O [compound 12742]	–	IC50 [1, 4]: 19.6 µM; IC50 (MDBK line; [5]): 18.9 µM
44.4	0.45	50.76	47.95	53.57	Cc1cc(C)nc(Nc2nc(-c3ccccc3)c3cc(Cl)ccc3n2)n1 [compound 11316]	19.9	–
–	–	–	–	–	COc1cc(NS(=O)(=O)c2ccc(NC(=S)NC(=O)/C=C/c3ccco3)cc2)ncn1 [AD4-11870]	–	IC50 [1, 6]: 55.1 µM; IC50 (MDBK line; [7]): 47.3 µM; ICW Screen (ICW Inhibition) (EGFR): 30.849
12.9	1.45	25.81	28.01	23.61	COc1ccc2c(C)nc(Nc3nc(C)cc(-c4ccccc4)n3)nc2c1 [compound 12676]	18.8	–
21.9	0.80	27.24	32.59	21.89	CCc1ccc2nc(Nc3ncc4c(n3)CC(c3cccc(Cl)c3)CC4=O)nc(C)c2c1 (stereo not shown) [11680 + TFA]	17.4	–
–	1.03	33.01	32.26	33.77	COc1cccc2c(C)nc(Nc3nc(-c4ccc(F)cc4)cc(=O)[nH]3)nc12 [compound 12620]	–	IC50 [1, 4]: 5.17 µM; IC50 (MDBK line; [5]): 5.3 µM
–	–	–	–	–	O=C(NC(=S)Nc1ccc(S(=O)(=O)Nc2ccccc2)cc1)C1CC1 [AD4-12098]	–	IC50 [1, 6]: 23.4 µM; IC50 (MDBK line; [7]): 16.4 µM; ICW Screen (ICW Inhibition) (EGFR): 25.946
